Columns and labels:
[1] = system: metastatic 4T1 cancer; conditions: mouse, in vivo, iv
From the text: After labeling, cells should be centrifuged and supernatant should be removed. This step should be repeated until no radioactivity is detected in the supernatant.

[2] = system: CD45+ leukocyte cells (macrophages, monocytes, lymphocytes, granulocytes); assay: Uptake of iron binding proteins by CD45+ leukocyte cells in culture; format: cell-based, mouse; conditions: incubation 1-4 hrs, 0.1-0.2 mg/ml protein solution, standard culture conditions; FIG. 5
Protocol: (§1) Obtained cells are incubated in ferritin solution for a time and at the concentration sufficient to ensure proper ratio of ferritin/cell for their full load and also to ensure proper contrast content to obtain proper imaging). The time and concentration may vary depending on the number of molecules encapsulated/adsorbed into the ferritin cage, status of cell activation, condition and number of their intended administration.
For example, to ensure proper load with ferritins, cells are incubated for 1-4 hrs in ferritin solution 0.2 mg/ml in standard culture conditions. The frame of ferritin concentration may vary at least between 0.01 and 4 mg/ml as well as incubation time (5 min-6 hrs or more). Adjusting time and concentration of ferritin load to cells, the influence of ferritin and treatment conditions on cell viability should be minded.
as §1, with “haemoglobin” for “ferritin”, “haemoglobin/cell” for “ferritin/cell”, “imaging.” for “imaging).”, “linked with” for “encapsulated/adsorbed into”, “haemoglobin molecule,” for “ferritin cage,”, “administration. […]” for “administration.”

Substance | PET signal [1] | uptake of iron binding protein by cells [2]
18F fluorodeoxyglucose [plain 18F-1-DG] | lower PET signal | 
transferrin: human holo-transferrin purified from serum of healthy donor |  | very easily uptake
haemoglobins: human haemoglobin prepared from fresh red cells |  | very easily uptake
